Four compounds from patent US20110112133A1, “DIHYDRO PYRROLOQUINOLINE DERIVATIVES” (Takeda Pharmaceutical Company Limited, priority 2009, published 2011) can be followed below.

The target of one data set is T1, hNK2 receptor (Homo sapiens, UniProt P21452).
T1 construct: host or cells: CHO cells
T1 sequence (P21452 1-398): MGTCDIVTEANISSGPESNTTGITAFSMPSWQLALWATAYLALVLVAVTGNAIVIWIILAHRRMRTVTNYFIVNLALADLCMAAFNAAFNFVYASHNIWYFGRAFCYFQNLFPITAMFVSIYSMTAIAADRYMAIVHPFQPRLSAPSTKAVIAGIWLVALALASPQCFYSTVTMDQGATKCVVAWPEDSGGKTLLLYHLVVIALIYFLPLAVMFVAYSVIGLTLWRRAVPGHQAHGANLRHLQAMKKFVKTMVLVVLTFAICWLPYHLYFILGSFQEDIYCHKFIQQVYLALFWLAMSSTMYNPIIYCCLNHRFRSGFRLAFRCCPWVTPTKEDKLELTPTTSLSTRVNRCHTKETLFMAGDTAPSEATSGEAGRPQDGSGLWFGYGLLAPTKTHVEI
Description: Radioligand receptor binding inhibitory activity using membrane fraction of hNK2 receptor-expressing CHO cell ([125I]-NKA). To be noted: for inhibition at 1 µM / inhibition at 0.1 µM / inhibition at 0.01 µM: read-out: hNK2 receptor binding inhibitory activity (inhibitory rate (%)). As to the method:
Radioligand Receptor Binding Inhibitory Activity Using Membrane Fraction of hNK2 Receptor-Expressing CHO Cell
hNK2 receptor-expressing CHO cells (produced by EUROSCREEN) were cultured in a flask placed HAM-F12 medium containing 400 μg/mL Geneticin, 100 U/mL penicillin, 100 μg/mL streptomycin and 10% inactivated serum. The medium was removed and adhered cells were washed with PBS, and PBS containing 5 mM EDTA was added to detach the cells from the flask. The cells were recovered by centrifugation, suspended in suspending buffer A (15 mM Tris-HCl (pH 7.5), 12.5 mM MgCl2, 0.3 mM EDTA, 1 mM EGTA (Ethylene Glycol Bis(beta-aminoethylether)-N,N,N,N-tetraacetic Acid)), disrupted by POLYTRON homogenizer (manufactured by KINEMATICA) and centrifuged at 850×g for 10 min at 4° C. The supernatant was recovered and ultracentrifuged at 142000×g for 60 min at 4° C. The precipitated fraction was suspended in suspending buffer B (7.5 mM Tris-HCl (pH 7.5), 12.5 mM MgCl2, 0.3 mM EDTA, 1 mM EGTA, 250 mM sucrose), and cryopreserved (at −80° C.) as a membrane fraction preparation of hNK2 receptor-expressing CHO cell.
The radioligand receptor binding assay was performed in a 96 well microassay plate format with a final volume of 200 μL.
An assay buffer (50 μL, 50 mM Tris-HCl (pH 7.4), 0.02% bovine serum albumin, 2 μg/mL chymostatin, 40 μg/mL bacitracin, 40 μg/mL APMSF, 3 mM MnCl2) was added to a 96 well microassay plate. Thereto was added 50 μL of the above-mentioned cryopreserved membrane fraction preparation suspended in the assay buffer (20 μg/mL). An assay buffer (50 μL) containing 2% dimethyl sulfoxide was added to examine the total binding, 4 μM unlabeled NKA (produced by Peptide Institute, Inc.) solution (50 μL) diluted with an assay buffer containing 2% dimethyl sulfoxide was added to examine non-specific binding, and a test compound diluted with an assay buffer (50 μL, containing 2% dimethyl sulfoxide) was added. Furthermore, […] [^125I]-NKA (produced by NEN) solution (50 μL) was added to each well.
After reaction at room temperature for 30 min, using a cell harvester (manufactured by PerkinElmer), the reaction was stopped by rapid filtration on a unifilter plate (GF/C) (manufactured by PerkinElmer), which had been immersed in 0.3% aqueous polyethyleneimine solution for one day, and the cells were washed 10 times with 50 mM Tris-HCl (pH 7.4) buffer (250 μL) containing 0.02% bovine serum albumin. The GF/C filter plate was dried and 20 μL of MicroScinti-0 (manufactured by PerkinElmer) was added to each well and the radioactivity was measured by TopCount (manufactured by PerkinElmer).
Specific binding is shown by the value obtained by subtracting non-specific binding from the total binding. The binding inhibitory activity of the test compound is shown by the ratio of the value obtained by subtracting the measured value associated with the addition of the test compound from the total binding, to the value of the specific binding.

Structures can show the parent of a compound that is named as a salt.

For `Cc1ccn(-c2ccc(C(=O)N[C@@H]3CCC(F)(F)C[C@@H]3C(=O)N3CCc4c(-c5ncc[nH]5)nc5ccc(F)cc5c43)cc2)n1` [Example 6, N-[(1R,2S)-4,4-difluoro-2-{[8-fluoro-4-(1H-imidazol-2-yl)-2,3-dihydro-1H-pyrrolo[3,2-c]quinolin-1-yl]carbonyl}cyclohexyl]-4-(3-methyl-1H-pyrazol-1-yl)benzamide hydrochloride], the inhibition at 1 µM at hNK2 receptor (test compound 10^−6 M) turned out to be 99.4%. For the same compound, on hNK2 receptor (test compound 10^−7 M), the inhibition at 0.1 µM was 99.4%. Further, the inhibition at 0.01 µM on hNK2 receptor (test compound 10^−8 M) was determined as 96.1%.
For the compound `Cc1ccn(-c2ccc(C(=O)N[C@@H]3CCC(F)(F)C[C@@H]3C(=O)N3CCc4c(-c5ccsc5)nc5ccccc5c43)cc2)n1.Cl` [Example 8], the “hNK2 receptor binding inhibitory activity (inhibitory rate (%))” value on hNK2 receptor (test compound 10^−6 M) worked out at 100.7%; on hNK2 receptor (test compound 10^−7 M) it was 100.2%; on hNK2 receptor (test compound 10^−8 M), 98.5%.
For `Cc1ccn(-c2ccc(C(=O)N[C@@H]3CCC(F)(F)C[C@@H]3C(=O)N3CCc4c(-c5ccccc5)nc5ccc(F)cc5c43)cc2)n1.Cl` [Example 10, N-{(1R,2S)-4,4-difluoro-2-[(8-fluoro-4-phenyl-2,3-dihydro-1H-pyrrolo[3,2-c]quinolin-1-yl)carbonyl]cyclohexyl}-4-(3-methyl-1H-pyrazol-1-yl)benzamide hydrochloride], the “hNK2 receptor binding inhibitory activity (inhibitory rate (%))” value amounted to 99.9% at hNK2 receptor (test compound 10^−6 M), 99.5% on hNK2 receptor (test compound 10^−7 M) and 92.8% on hNK2 receptor (test compound 10^−8 M).
`Cc1ccn(-c2ccc(C(=O)N[C@@H]3CCC(F)(F)C[C@@H]3C(=O)N3CCc4c(-c5ncc[nH]5)nc5ccccc5c43)cc2)n1.Cl` [Example 12, N-[(1R,2S)-4,4-difluoro-2-{[4-(1H-imidazol-2-yl)-2,3-dihydro-1H-pyrrolo[3,2-c]quinolin-1-yl]carbonyl}cyclohexyl]-4-(3-methyl-1H-pyrazol-1-yl)benzamide hydrochloride]: the melting point – broadly, the temperature, or range, at which the solid turns liquid – worked out at 232 °C. Besides, at hNK2 receptor (test compound 10^−6 M), the inhibition at 1 µM was 101%. The inhibition at 0.1 µM at hNK2 receptor (test compound 10^−7 M) was found to be 101%. The inhibition at 0.01 µM at hNK2 receptor (test compound 10^−8 M) was 99.8%.
